The record followed here is US20060281700A1, “SYNERGISTIC MODULATION OF FLT3 KINASE USING AMINOPYRIMIDINES KINASE MODULATORS” (priority 2005, published 2006).

As usually defined, the IC50 is the concentration at which inhibition is half-maximal. The low end stands for higher potency, the high end for lower potency.

The test system of the test is MV4-11 cells. The test can be described thus: Inhibition of MV4-11 cell proliferation (CellTiterGlo, 72 hours). It is filed as cell-based. The settings on record: Homo sapiens; 72 hours growth; uncertainty ±20%. The protocol:
Inhibition Of MV4-11 and Baf3 Cell Proliferation
To assess the cellular potency of the FLT3 inhibitors of Formula I′, FLT3 specific growth inhibition was measured in the leukemic cell line MV4-11 (ATCC Number: CRL-9591). […] MV4-11 cells cannot grow and survive without active FLT3ITD.
To measure proliferation inhibition by test compounds, the luciferase based CellTiterGlo reagent (Promega), which quantifies total cell number based on total cellular ATP concentration, was used. Cells are plated at 10,000 cells per well in 100 ul of in RPMI media containing penn/strep, 10% FBS and 1 ng/ml GM-CSF or 1 ng/ml IL-3 for MV4-11 and Baf3 cells respectively.
Compound dilutions or 0.1% DMSO (vehicle control) are added to cells and the cells are allowed to grow for 72 hours at standard cell growth conditions (37° C., 5% CO2). For activity measurements in MV4-11 cells grown in 50% plasma, cells were plated at 10,000 cells per well in a 1:1 mixture of growth media and human plasma (final volume of 100 μL). To measure total cell growth an equal volume of CellTiterGlo reagent was added to each well, according to the manufacturer's instructions, and luminescence was quantified. Total cell growth was quantified as the difference in luminescent counts (relative light units, RLU) of cell number at Day 0 compared to total cell number at Day 3 (72 hours of growth and/or compound treatment). One hundred percent inhibition of growth is defined as an RLU equivalent to the Day 0 reading. Zero percent inhibition was defined as the RLU signal for the DMSO vehicle control at Day 3 of growth. All data points are an average of triplicate samples. […] Inhibition and IC50 data analysis was done with GraphPad Prism using a non-linear regression fit with a multiparamater, sigmoidal dose-response (variable slope) equation.
MV4-11 cells express the FLT3 internal tandem duplication mutation, and thus are entirely dependent upon FLT3 activity for growth. […] In contrast, the Baf3 cell proliferation is driven by the cytokine IL-3 and thus are used as a non-specific toxicity control for test compounds.
A general note: ATP-based viability assays read luminescence as a measure of living cells.
Molecule `CO/N=C/c1c(N)ncnc1N1CCC(NC(=O)Nc2ccc(Cl)cc2)CC1` [Number 25, 1-{1-[6-Amino-5-(methoxyimino-methyl)-pyrimidin-4-yl]-piperidin-4-yl}-3-(4-chloro-phenyl)-urea] displayed an IC50 of 890 nM.
Next, `CCNC(=O)NCCO/N=C/c1c(N)ncnc1N1CCC(NC(=O)Nc2ccc(C(C)C)cc2)C1` (stereo not shown) [Number 28, 1-[1-(6-Amino-5-{[2-(3-ethyl-ureido)-ethoxyimino]-methyl}-pyrimidin-4-yl)-pyrrolidin-3-yl]-3-(4-isopropyl-phenyl)-urea]: 498 nM.
In turn, `CO/N=C/c1c(N)ncnc1N1CCC(NC(=O)Nc2ccc(OC3CCC3)nc2)CC1` [Number 15, 1-{1-[6-Amino-5-(methoxyimino-methyl)-pyrimidin-4-yl]-piperidin-4-yl}-3-(6-cyclobutoxy-pyridin-3-yl)-urea] gave an IC50 of 578 nM. This IC50 and that of the molecule before are within 1.5-fold of each other.
Then `CO/N=C/c1c(N)ncnc1N1CCC(NC(=O)Nc2ccc(Oc3ccccc3)cc2)C1` (stereo not shown) [Number 19, 1-{1-[6-Amino-5-(methoxyimino-methyl)-pyrimidin-4-yl]-pyrrolidin-3-yl}-3-(4-phenoxy-phenyl)-urea], with 371 nM; and `CO/N=C/c1c(N)ncnc1N1CCC(NC(=O)Nc2ccc(OC(C)C)cc2)CC1` [Number 12, 1-{1-[6-Amino-5-(methoxyimino-methyl)-pyrimidin-4-yl]-piperidin-4-yl}-3-(4-isopropoxy-phenyl)-urea], with 672 nM; and `CO/N=C/c1c(N)ncnc1N1CCC(NC(=O)Nc2ccc(N3CCCCC3)cc2)CC1` [Number 13, 1-{1-[6-Amino-5-(methoxyimino-methyl)-pyrimidin-4-yl]-piperidin-4-yl}-3-(4-piperidin-1-yl-phenyl)-urea], with 587 nM.
Take `CO/N=C/c1c(N)ncnc1N1CCC(NC(=O)Nc2ccc(OC3CCCC3)nc2)CC1` [Number 23, 1-{1-[6-Amino-5-(methoxyimino-methyl)-pyrimidin-4-yl]-piperidin-4-yl}-3-(6-cyclopentyloxy-pyridin-3-yl)-urea]: the half-maximal inhibitory concentration (IC50) worked out at 651 nM.
Consider `CO/N=C/c1c(N)ncnc1N1CCC(NC(=O)Nc2ccc(N3CCCC3)cc2)C1` (stereo not shown) [Number 20, 1-{1-[6-Amino-5-(methoxyimino-methyl)-pyrimidin-4-yl]-pyrrolidin-3-yl}-3-(4-pyrrolidin-1-yl-phenyl)-urea], for which the IC50 was found to be 491 nM.
The molecule `CO/N=C/c1c(N)ncnc1N1CCC(NC(=O)Nc2ccc(C3CCCCC3)cc2)CC1` [Number 22, 1-{1-[6-Amino-5-(methoxyimino-methyl)-pyrimidin-4-yl]-piperidin-4-yl}-3-(4-cyclohexyl-phenyl)-urea] registered a half-inhibitory concentration (IC50) of 672 nM.
The molecule `CO/N=C/c1c(N)ncnc1N1CCC(OC(=O)Nc2ccc(C(C)C)cc2)CC1` [Number 5, (4-Isopropyl-phenyl)-carbamic acid 1-[6-amino-5-(methoxyimino-methyl)-pyrimidin-4-yl]-piperidin-4-yl ester] gave an IC50 of 11 nM.
In turn, `CCO/N=C/c1c(N)ncnc1N1CCC(OC(=O)Nc2ccc(OC(C)C)cc2)CC1` [Number 2, (4-Isopropoxy-phenyl)-carbamic acid 1-[6-amino-5-(ethoxyimino-methyl)-pyrimidin-4-yl]-piperidin-4-yl ester] had a half-inhibitory concentration (IC50) of 135 nM. Against the preceding molecule, the IC50 is about 12-fold higher.
Molecule `CC(C)c1ccc(NC(=O)NC2CCN(c3ncnc(N)c3/C=N/OCC(=O)N3CCOCC3)C2)cc1` (stereo not shown) [Number 29, 1-(1-{6-Amino-5-[(2-morpholin-4-yl-2-oxo-ethoxyimino)-methyl]-pyrimidin-4-yl}-pyrrolidin-3-yl)-3-(4-isopropyl-phenyl)-urea] displayed a 50% inhibitory concentration (IC50) of 856 nM.
For `CO/N=C/c1c(N)ncnc1N1CCC(NC(=O)Nc2ccc(OC(C)C)cc2)C1` (stereo not shown) [Number 8, 1-{1-[6-Amino-5-(methoxyimino-methyl)-pyrimidin-4-yl]-pyrrolidin-3-yl}-3-(4-isopropoxy-phenyl)-urea], the IC50 was 455 nM.
Then `CO/N=C/c1c(N)ncnc1N1CCC(OC(=O)Nc2ccc(OC(C)C)cc2)CC1` [Number 1, (4-Isopropoxy-phenyl)-carbamic acid 1-[6-amino-5-(methoxyimino-methyl)-pyrimidin-4-yl]-piperidin-4-yl ester], with 740 nM; and `CO/N=C/c1c(N)ncnc1N1CCC(CC(=O)Nc2ccc(C(C)C)cc2)CC1` [Number 7, 2-{1-[6-Amino-5-(methoxyimino-methyl)-pyrimidin-4-yl]-piperidin-4-yl}-N-(4-isopropyl-phenyl)-acetamide], with 208 nM.
In turn, `CO/N=C/c1c(N)ncnc1N1CCC(NC(=O)Nc2ccc(N3CCOCC3)cc2)C1` (stereo not shown) [Number 10, 1-{1-[6-Amino-5-(methoxyimino-methyl)-pyrimidin-4-yl]-pyrrolidin-3-yl}-3-(4-morpholin-4-yl-phenyl)-urea] had an IC50 of 569 nM.
With `CO/N=C/c1c(N)ncnc1N1CCC(NC(=O)Nc2ccc(Oc3ccccc3)cc2)CC1` [Number 26, 1-{1-[6-Amino-5-(methoxyimino-methyl)-pyrimidin-4-yl]-piperidin-4-yl}-3-(4-phenoxy-phenyl)-urea], the IC50 was determined as 856 nM. Compared with the last molecule, the IC50 is about 1.5-fold higher.
Next, `CO/N=C/c1c(N)ncnc1N1CCC(NC(=O)Nc2ccc(OC3CCCC3)nc2)C1` (stereo not shown) [Number 21, 1-{1-[6-Amino-5-(methoxyimino-methyl)-pyrimidin-4-yl]-pyrrolidin-3-yl}-3-(6-cyclopentyloxy-pyridin-3-yl)-urea]: 249 nM; `CO/N=C/c1c(N)ncnc1N1CCC(NC(=O)Nc2ccc(OC3CCC3)nc2)C1` (stereo not shown) [Number 11, 1-{1-[6-Amino-5-(methoxyimino-methyl)-pyrimidin-4-yl]-pyrrolidin-3-yl}-3-(6-cyclobutoxy-pyridin-3-yl)-urea]: 398 nM.
Then `CC(C)Oc1ccc(NC(=O)OC2CCN(c3ncnc(N)c3/C=N/OCCCN(C)C)CC2)cc1` [Number 4, (4-Isopropoxy-phenyl)-carbamic acid 1-{6-amino-5-[(3-dimethylamino-propoxyimino)-methyl]-pyrimidin-4-yl}-piperidin-4-yl ester], with 1400 nM; and `CO/N=C/c1c(N)ncnc1N1CCC(CC(=O)Nc2ccc(C(C)C)cc2)C1` (stereo not shown) [Number 6, 2-{1-[6-Amino-5-(methoxyimino-methyl)-pyrimidin-4-yl]-pyrrolidin-3-yl}-N-(4-isopropyl-phenyl)-acetamide], with 31 nM.
`CO/N=C/c1c(N)ncnc1N1CCC(NC(=O)Nc2ccc(C3CCCCC3)cc2)C1` (stereo not shown) [Number 17, 1-{1-[6-Amino-5-(methoxyimino-methyl)-pyrimidin-4-yl]-pyrrolidin-3-yl}-3-(4-cyclohexyl-phenyl)-urea] gave an IC50 of 386 nM.
With `CO/N=C/c1c(N)ncnc1N1CCC(NC(=O)Nc2ccc(N3CCOCC3)cc2)CC1` [Number 14, 1-{1-[6-Amino-5-(methoxyimino-methyl)-pyrimidin-4-yl]-piperidin-4-yl}-3-(4-morpholin-4-yl-phenyl)-urea], the IC50 amounted to 1200 nM.
Molecule `CO/N=C/c1c(N)ncnc1N1CCC(NC(=O)Nc2ccc(Cl)cc2)C1` (stereo not shown) [Number 18, 1-{1-[6-Amino-5-(methoxyimino-methyl)-pyrimidin-4-yl]-pyrrolidin-3-yl}-3-(4-chloro-phenyl)-urea] showed a 50% inhibitory concentration (IC50) of 735 nM.
Next, `CO/N=C/c1c(N)ncnc1N1CCC(NC(=O)Nc2ccc(N3CCCCC3)cc2)C1` (stereo not shown) [Number 9, 1-{1-[6-Amino-5-(methoxyimino-methyl)-pyrimidin-4-yl]-pyrrolidin-3-yl}-3-(4-piperidin-1-yl-phenyl)-urea]: 764 nM.
